Source: patent US20240316130A1 (priority 2023, published 2024)
Entries after “also recorded” stand apart in the source; their conditions may differ.

Test system: ASS1^KO B16F10 cells
Type: cell-based, murine

Compound	rescue of MYXV replication by supplement
NC(=NCCCC(N)C(=O)O)NC(CC(=O)O)C(=O)O (centres unmarked) [argininosuccinate]	support myxoma virus replication; also recorded: remained rescuable
NC(=O)NCCC[C@H](N)C(=O)O [citrulline, L-Citrulline]	not able to divide or support myxoma virus replication; also recorded: could no longer be rescued
